{"source": "patent US6486164B2", "about": "“6-(4-arylalkylpiperazin-1-yl) benzodioxane and 6-(4-arylalkylpiperazin-1-yl) chromane derivatives: dopamine receptor subtype specific ligands” (Neurogen Corporation, priority 1998, dated 2002)", "key": {"D4 receptors from human": {"target": "T1, D4 receptors from human (Homo sapiens, UniProt P21917)", "T1 construct": "expressed in transfected cells; host or cells: COS cells", "T1 sequence (P21917 1-419)": "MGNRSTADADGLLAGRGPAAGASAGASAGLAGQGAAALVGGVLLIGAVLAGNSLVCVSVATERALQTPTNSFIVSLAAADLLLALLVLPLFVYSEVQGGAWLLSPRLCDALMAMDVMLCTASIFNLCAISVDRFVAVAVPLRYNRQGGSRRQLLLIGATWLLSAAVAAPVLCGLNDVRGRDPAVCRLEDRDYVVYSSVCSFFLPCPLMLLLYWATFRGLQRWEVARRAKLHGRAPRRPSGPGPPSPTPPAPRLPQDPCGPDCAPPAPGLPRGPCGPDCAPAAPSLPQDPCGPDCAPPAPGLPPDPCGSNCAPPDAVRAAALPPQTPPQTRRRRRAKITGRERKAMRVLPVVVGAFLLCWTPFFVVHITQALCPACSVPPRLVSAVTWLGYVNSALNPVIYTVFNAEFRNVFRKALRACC", "assay": "D4 receptor binding assay (3H-YM 09151-2 displacement)", "procedure": "(§1) Pellets of COS cells containing recombinantly produced D2, D3 or D4 receptors from human are used for the assays. The sample is homogenized in 100 volumes (w/vol) of 0.05 M Tris HCl buffer at 4° C. and pH 7.4. The sample is then centrifuged at 30,000×g and resuspended and rehomogenized. The sample is then centrifuged as described and the final tissue sample is frozen until use. The tissue is resuspended 1:20 (wt/vol) in 0.05 M Tris HCl buffer containing 100 mM NaCl."}, "D3 receptors from human": {"target": "T2, D3 receptors from human (Homo sapiens, UniProt P35462)", "T2 construct": "expressed in transfected cells; host or cells: COS cells", "T2 sequence (P35462 whole entry)": "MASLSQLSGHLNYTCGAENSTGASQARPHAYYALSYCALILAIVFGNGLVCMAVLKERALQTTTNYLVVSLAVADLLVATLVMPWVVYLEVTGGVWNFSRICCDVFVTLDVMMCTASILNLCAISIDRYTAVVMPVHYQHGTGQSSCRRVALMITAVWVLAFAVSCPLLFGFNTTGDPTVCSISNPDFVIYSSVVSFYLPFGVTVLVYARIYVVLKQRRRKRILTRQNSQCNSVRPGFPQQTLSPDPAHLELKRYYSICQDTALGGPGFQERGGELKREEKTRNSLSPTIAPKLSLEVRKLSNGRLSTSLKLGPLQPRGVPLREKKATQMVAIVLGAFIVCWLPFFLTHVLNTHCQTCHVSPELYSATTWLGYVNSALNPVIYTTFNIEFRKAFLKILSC", "assay": "D3 receptor binding assay (3H-YM 09151-2 displacement)", "procedure": "as §1"}, "D2 receptors from human": {"target": "T3, D2 receptors from human (Homo sapiens, UniProt P14416)", "T3 construct": "expressed in transfected cells; host or cells: COS cells", "T3 sequence (P14416 whole entry)": "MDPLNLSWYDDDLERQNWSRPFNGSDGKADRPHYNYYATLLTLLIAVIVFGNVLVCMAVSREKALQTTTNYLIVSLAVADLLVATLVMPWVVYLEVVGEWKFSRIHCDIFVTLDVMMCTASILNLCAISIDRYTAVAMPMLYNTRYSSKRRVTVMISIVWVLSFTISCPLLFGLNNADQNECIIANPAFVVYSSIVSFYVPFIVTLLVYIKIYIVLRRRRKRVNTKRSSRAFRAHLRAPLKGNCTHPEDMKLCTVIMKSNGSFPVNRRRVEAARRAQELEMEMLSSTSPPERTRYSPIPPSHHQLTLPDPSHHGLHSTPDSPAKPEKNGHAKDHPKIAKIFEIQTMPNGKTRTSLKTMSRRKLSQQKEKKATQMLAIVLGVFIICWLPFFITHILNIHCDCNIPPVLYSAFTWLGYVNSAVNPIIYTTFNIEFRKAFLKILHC", "assay": "D2 receptor binding assay (3H-YM 09151-2 displacement)", "procedure": "as §1"}, "[1]": {"details": "recombinant human receptor in COS cells, 0.5 nM 3H-YM 09151-2, read-out: D4 Ki"}, "[2]": {"details": "recombinant human receptor in COS cells, 0.5 nM 3H-YM 09151-2, read-out: D3 Ki"}, "[3]": {"details": "recombinant human receptor in COS cells, 0.5 nM 3H-YM 09151-2, read-out: D2 Ki"}}, "note": "Counter-ions that a name gives are not always drawn. Like-named read-outs stand apart in the source and are kept apart here."}
{"compound": "Cl.c1ccc(CN2CCN(c3ccc4c(c3)OCCO4)CC2)cc1", "values": [{"measurement": "melting point", "value": "143 to 145", "unit": "°C"}]}
{"compound": "Cc1ccc(CN2CCN(c3ccc4c(c3)OCCO4)CC2)cc1.O=C(O)C(=O)O", "values": [{"measurement": "melting point", "value": "200 to 201", "unit": "°C"}]}
{"compound": "COc1ccc(CN2CCN(c3ccc4c(c3)OCCO4)CC2)cc1.O=C(O)C(=O)O", "values": [{"measurement": "melting point", "value": "193 to 195", "unit": "°C"}]}
{"compound": "Clc1cccc(CN2CCN(c3ccc4c(c3)OCCO4)CC2)c1.O=C(O)C(=O)O", "values": [{"measurement": "melting point", "value": "213 to 215", "unit": "°C"}]}
{"compound": "Clc1ccccc1CN1CCN(c2ccc3c(c2)OCCO3)CC1.O=C(O)C(=O)O", "values": [{"measurement": "melting point", "value": 175, "unit": "°C"}]}
{"compound": "COc1ccccc1CN1CCN(c2ccc3c(c2)OCCO3)CC1.O=C(O)C(=O)O", "values": [{"measurement": "melting point", "value": 143, "unit": "°C"}]}
{"compound": "1-(Chroman-6-yl)-4-(4-methylbenzyl)piperazine Oxalate [Compound 4]", "values": [{"measurement": "Ki", "setting": "D4 receptors from human; [1]", "value": 35, "unit": "nM"}, {"measurement": "Ki", "setting": "D3 receptors from human; [2]", "value": 2990, "unit": "nM"}, {"measurement": "Ki", "setting": "D2 receptors from human; [3]", "value": 2310, "unit": "nM"}]}
{"compound": "COc1cccc(CN2CCN(c3ccc4c(c3)OCCO4)CC2)c1", "note": "(as salt: oxalate) [Compound 2, 1-(1,4-benzodioxan-6-yl)-4-(3-methoxybenzyl)piperazine oxalate]", "values": [{"measurement": "melting point", "value": "213 to 215", "unit": "°C"}]}
{"compound": "Clc1ccc(CN2CCN(c3ccc4c(c3)OCCO4)CC2)cc1", "note": "(as salt: oxalate) [Compound 3, 1-(1,4-benzodioxan-6-yl)-4-(4-chlorobenzyl)piperazine oxalate]", "values": [{"measurement": "melting point", "value": "213 to 215", "unit": "°C"}]}
{"compound": "Fc1ccc(CN2CCN(c3ccc4c(c3)OCCO4)CC2)cc1", "note": "[Compound 1, 1-(1,4-Benzodioxan-6-yl)-4-(4-fluorobenzyl)piperazine Oxalate]", "values": [{"measurement": "Ki", "setting": "D4 receptors from human", "value": 11, "unit": "nM"}, {"measurement": "Ki", "setting": "D3 receptors from human", "value": 3660, "unit": "nM"}, {"measurement": "Ki", "setting": "D2 receptors from human", "value": "> 4000", "unit": "nM"}]}
{"compound": "COc1cccc(CN2CCN(c3ccc4c(c3)OCCO4)CC2)c1", "note": "[Compound 2, 1-(1,4-benzodioxan-6-yl)-4-(3-methoxybenzyl)piperazine oxalate]", "values": [{"measurement": "Ki", "setting": "D4 receptors from human; [1]", "value": 37, "unit": "nM"}, {"measurement": "Ki", "setting": "D3 receptors from human; [2]", "value": 2570, "unit": "nM"}, {"measurement": "Ki", "setting": "D2 receptors from human; [3]", "value": 2590, "unit": "nM"}]}
{"compound": "Clc1ccc(CN2CCN(c3ccc4c(c3)OCCO4)CC2)cc1", "note": "[Compound 3, 1-(1,4-benzodioxan-6-yl)-4-(4-chlorobenzyl)piperazine oxalate]", "values": [{"measurement": "Ki", "setting": "D4 receptors from human", "value": 25, "unit": "nM"}, {"measurement": "Ki", "setting": "D3 receptors from human", "value": 2630, "unit": "nM"}, {"measurement": "Ki", "setting": "D2 receptors from human", "value": "> 4000", "unit": "nM"}]}
